From PMC6620326, “Structural characterization of life-extending Caenorhabditis elegans Lipid Binding Protein 8” (Scientific Reports, 2019)

How the values were obtained:
LBP-8 [1] = target: T1, LBP-8 (Caenorhabditis elegans, UniProt O02324); assay: […],8-ANS fluorescence displacement; assay type: binding; settings: PBS pH 8.0, 37 °C, 250 nM protein, 800 nM 1,8-ANS, 1% ethanol; refolded delipidated protein; competitive with 1,8-ANS
T1 construct: full-length residues 1-137, pMCSG7 His6-TEV, E. coli BL21(DE3); His tag cleaved by TEV
T1 sequence (O02324 1-137): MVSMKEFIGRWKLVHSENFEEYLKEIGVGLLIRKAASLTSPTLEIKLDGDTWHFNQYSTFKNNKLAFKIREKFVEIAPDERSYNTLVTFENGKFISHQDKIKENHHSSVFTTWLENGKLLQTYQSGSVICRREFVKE

LBP-8 [2] = target: T1, LBP-8; assay: differential scanning fluorimetry, SYPRO orange; assay type: binding; settings: 20 µM ligand, 7 µM refolded protein, 1% ethanol; destabilising shift

decrease in Tm vs apo (LBP-8 [2])	Structure (SMILES)	Ki (LBP-8 [1])
	CCCCCCCC/C=C\CCCCCCCC(=O)NCCO [OEA, oleoylethanolamide]	oleic acid and OEA, and both had very similar Ki’s
~ 4 °C	CCCCCCCC/C=C\CCCCCCCC(=O)O [OA, oleic acid]	oleic acid and OEA, and both had very similar Ki’s
